Test results as given in patent publication US7871788B2, “Method of judging grade of malignancy of carcinoma cell using ATBF-1” (priority 2004, dated 2011).
Entries after “also recorded” stand apart in the source; their conditions may differ.

Key:
P19 cells [1] = experiment: Export of ATBF1 from nucleus to cytoplasm in P19 cells, CRM1 inhibitor added; type: cell-based, mouse
Method: (§1) The present inventors harvested cells in an undifferentiated proliferation state, to which stimulation had not been particularly applied, when at the starting time of culturing P19 carcinoma cells, and carried out an immunohistochemical staining method (ATBF1 staining using D1-120) by the following procedures. The cells were cultured in a chamber slide and fixed in 4% paraformaldehyde that had been adjusted with PBS, followed by washing. A primary antibody solution obtained by dissolving an anti-ATBF1 antibody in 0.05M Tris buffer solution (pH 7.6, containing 1% solution of bovine serum albumin and sodium azide) so that the concentration of the solution became 5 μg/ml was dropped on a slice to cause reaction at 37° C. for about 30 minutes (primary antibody reaction). After sufficiently washing, a secondary antibody Alexa Fluor 594-conjugated goat anti-rabbit IgG (as shown in the below-mentioned Examples, when double staining with other monoclonal antibody is carried out, Alexa Fluor 488-conjugated goat anti-mouse IgG is used simultaneously. Both are products by Molecular Probes.) was allowed to act on a specimen to cause a reaction at room temperature for about one hour (secondary antibody reaction). After sufficiently washing, inclusion was carried, which was observed by using a fluorescence microscope (AX70; Olympus) or a confocal laser scanning microscope (LSM5; ZWISS).
Recently, the fact that transport and export of various factors from the nucleus to the cytoplasm is adjusted with CRM1 (Exportin 1 or chromosome region maintenance 1) has been reported. ATBF1 is assumed to have a target sequence of CRM1, that is, nuclear exporting signals existing in three positions (portions starting from the 1267th, 2471th and 2504th positions in the amino acid sequence, respectively) (see FIG. 3b). […]

P19 cells [2] = experiment: Movement of ATBF1 from cytoplasm to nucleus in P19 cells, PI3K family antagonists added; type: cell-based, mouse; settings: P19 cells attached to culture dish, after retinoic acid
Method: as §1, with “After sufficiently washing, a secondary antibody Alexa Fluor 594-conjugated goat anti-rabbit IgG (as shown in the below-mentioned Examples, when double staining with other monoclonal antibody is carried out, Alexa Fluor 488-conjugated goat anti-mouse IgG is used simultaneously. Both are products by Molecular Probes.) was allowed to act on a specimen to cause a reaction at room temperature for about one hour (secondary antibody reaction).” left out, “ZWISS). […]” for “ZWISS).”
From the fact about various factors relating to the cell cycle, which was investigated in the past, the movement of proteins between the nucleus and the cytoplasm is known to relate to phosphorylation of amino acid. In particular, it was determined that, for the movement to the nucleus, phosphorylation and dephosphorylation of nuclear localization signals were important. […]

RT4 = settings: cited from earlier work
T24 = settings: T24, p53 nonsense mutant; cited from earlier work
HT1376 = settings: HT1376, p53 missense mutant, p21 frame shift mutation; cited from earlier work
[3] = tested on: NB1 cultured cell line derived from human neuroblastoma; experiment: Western blotting of ATBF1 protein (D1-120) with or without retinoic acid treatment, NB1; type: cell-based; settings: NB1, after retinoic acid treatment 24 hours
Method: In order to confirm the probability that the ATBF1 assumed in 10-2 is cut at some sites and it can function as each fraction of the cell, by using three kinds of cultured cells, that is, the cultured cell lines derived from human neuroblastoma, NB1 and GOTO; a mouse undifferentiated embryonic carcinoma cell line p19 and SDS-PAGE and western blotting using an anti-ATBF1 antibody (D1-120) were carried out. A control group and a nerve cell differentiation inducing group were examined, separately. As to the control group, cells of P19, NB1 and GOTO that have been cultured in a serum-containing culture solution were collected and examined. As to the nerve cell differentiation inducing group, retinoic acid treatment was carried out (P19: four days; NB1 and GOTO: 24 hours). However, a culture method of P19 cells is different from that of the other two cell lines. Firstly, in a state in which cells were allowed to float on a bacterial grade dish for four days, retinoic acid (concentration: […]) treatment was carried out, and then a serum-containing culture solution from which the retinoic acid had removed was prepared and transferred to a usual tissue culture dish. Then, culture was continued for three days. According to this method, P19 cells were differentiated and induced to neuron in which neurite was observed. […]

CCC(=C/[C@H](C)C/C=C/C(C)=C/[C@@H](C)C(=O)[C@@H](C)[C@H](O)[C@@H](C)C/C(C)=C/C(=O)O)/C=C/[C@@H]1OC(=O)C=C[C@@H]1C [Leptomycin B]
number of cells undergoing apoptosis (P19 cells [1]; P19 cells after retinoic acid on coated dish): clearly increased
intranuclear concentration of ATBF1 (P19 cells [1]; P19 cells after retinoic acid on dish coated with fibronectin and poly-L-ornithine, versus no Leptomycin B): clearly increased
cell death (P19 cells [1]; one more day of culture added, the following day): almost all the cells died

Cn1c(=O)c2c(ncn2C)n(C)c1=O [caffeine]
movement of ATBF1 into the nucleus (P19 cells [2]): inhibited in almost all of the cultured cells; also recorded: more completely inhibited
proliferation state of cells (P19 cells [2]): completely maintained

N.N.[Cl][Pt][Cl] [cisplatin]
introduction of p21 (RT4; RT4, the only one of the three cell lines): can introduce p21
induction of apoptosis (RT4; RT4, wild-type p21 and p53): can be induced
induction of apoptosis (T24): cannot be induced
induction of apoptosis (HT1376): cannot be induced

CC1=C(/C=C/C(C)=C/C=C/C(C)=C/C(=O)O)C(C)(C)CCC1 [retinoic acid]
size of ATBF1 protein mainly observed [3]: 210 kDa
